The conditions of data set [1]: reference compounds (markers) of the permeability assay; cited from earlier work.
The target of the next data set is T1, cathepsin K (Homo sapiens, UniProt P43235).
T1 construct: made in house; host or cells: not fixed: E coli, Pichia or Baculovirus systems named as options
T1 sequence (P43235 115-329): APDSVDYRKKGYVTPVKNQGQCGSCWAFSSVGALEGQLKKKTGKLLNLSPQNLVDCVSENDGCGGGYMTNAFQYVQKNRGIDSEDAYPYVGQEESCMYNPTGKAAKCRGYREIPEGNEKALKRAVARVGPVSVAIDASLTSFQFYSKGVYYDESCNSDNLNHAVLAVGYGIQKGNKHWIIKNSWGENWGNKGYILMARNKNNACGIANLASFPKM
The data set is described as follows: Determination of cathepsin K proteolytic catalytic activity (Ki, fluorogenic peptide substrate). Conditions: human recombinant enzyme. It counts as biochemical. Here is the method:
Convenient assays for cathepsin K are carried out using human recombinant enzyme, such as that described in PDB.
The recombinant cathepsin K can be expressed in a variety of commercially available expression systems including E coli, Pichia and Baculovirus systems. The purified enzyme is activated by removal of the prosequence by conventional methods.
The enzyme concentration used was 5 nM. The stock substrate solution was prepared at 10 mM in DMSO. […] The total DMSO concentration in the assay was kept below 3%. All assays were conducted at ambient temperature. Product fluorescence (excitation at 390 nm, emission at 460 nm) was monitored with a Labsystems Fluoroskan Ascent fluorescent plate reader.
Potential inhibitors are screened using the above assay with variable concentrations of test compound. Reactions were initiated by addition of enzyme to buffered solutions of substrate and inhibitor.

For the next data set, the target named is human cathepsin L (Homo sapiens, UniProt P07711). The data set is described as follows: Cathepsin L Ki determination (fluorescent substrate H-D-Val-Leu-Lys-AMC). Conditions: pH5.5. The format is biochemical. Here is the method: The procedure above with the following amendments is used for the determination of Ki for cathepsin L.
The enzyme is commercially available human cathepsin L (for example Calbiochem). The substrate is H-D-Val-Leu-Lys-AMC available from Bachem. The assay buffer is 100 mM sodium acetate 1 mM EDTA, pH5.5) The DMSO stock (10 mM in 100%DMSO) is diluted to 10% in assay buffer. Enzyme is prepared at 5 nM concentration in assay buffer plus 1 mM dithiothreitol just before use. 2 ul of 10 mM inhibitor made up in 100% DMSO is dispensed into row A. 10 ul of 50 uM substrate (=1/200 dilution of 10 mM stock in DMSO, diluted in assay buffer)
Potential inhibitors are screened using the above assay with variable concentrations of test compound. Reactions were initiated by addition of enzyme to buffered solutions of substrate and inhibitor. Ki values were calculated according to equation 1 v0 = (VS)/(KM (1 + (I)/(Ki)) + S) [formula] where v0 is the velocity of the reaction, V is the maximal velocity, S is the concentration of substrate with Michaelis constant of KM, and / is the concentration of inhibitor.
Representative compounds of the invention were assayed for cathepsin K potency and selectivity in the assays above. Note that the cathepsin L and S data is in micromolar, whereas the compounds are so potent against cathepsin K that the results are presented in nanomolar.

A further data set deals with T2, human cathepsin S (Homo sapiens, UniProt P25774).
T2 construct: made in house
Kind of data set: Cathepsin S Ki determination (fluorescent substrate boc-Val-Leu-Lys-AMC). It counts as biochemical. Conditions: baculovirus-expressed human cathepsin S, pH 6.5. Here is the method:
The assay uses baculovirus-expressed human cathepsin S and the boc-Val-Leu-Lys-AMC fluorescent substrate available from Bachem in a 384 well plate format, in which 7 test compounds can be tested in parallel with a positive control comprising a known cathepsin S inhibitor comparator.
280 ul/well of 12.5% DMSO are added to rows B - H of two columns of a 96 deep well polypropylene plate. 70 ul/well of substrate is added to row A. 2 x 250 ul/well of assay buffer (100 mM Na phosphate, 100 mM NaCl, pH 6.5) is added to row A, mixed, and double diluted down the plate to row H.
100 ul/well of assay buffer is added to columns 2-5 and 7-12 of 4 rows of a 96 well V bottom polypropylene plate. 200 ul/well of assay buffer is added to columns 1 and 6.
2 ul of each 10 mM test compound is added to a separate well on row A, columns 1-10. Add 90 ul assay buffer containing 1 mM DTT and 2 nM cathepsin S to each well of rows B-H and 180 ul to row A. Mix row A using a multichannel pipette and double dilute to row G. Mix row H and read in the fluorescent spectrophotometer.
The second test compound is added to column 6 of the top row, the third to column 1 of the second row etc. Add 1 ul of comparator to column 6 of the bottom row. […]
Using the a distributor such as a Multidrop 384, add 30 ul/well to all wells of the assay plate and read in fluorescent spectrophotometer such as an Ascent. […]

A short description of data set [2]: Permeability, transport through Caco-2 cell monolayers. The conditions noted are these: human.

Structures are written as SMILES. pKi: −log10 of the molar value.

Chain of human cathepsin L (P07711 114-333): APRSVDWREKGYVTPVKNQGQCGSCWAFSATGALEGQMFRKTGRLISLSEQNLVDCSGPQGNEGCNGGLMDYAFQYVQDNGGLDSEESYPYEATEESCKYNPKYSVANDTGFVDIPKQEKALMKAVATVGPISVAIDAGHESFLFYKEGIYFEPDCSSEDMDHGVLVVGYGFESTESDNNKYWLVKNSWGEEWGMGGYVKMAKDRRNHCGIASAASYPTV
T2 sequence (P25774 115-331): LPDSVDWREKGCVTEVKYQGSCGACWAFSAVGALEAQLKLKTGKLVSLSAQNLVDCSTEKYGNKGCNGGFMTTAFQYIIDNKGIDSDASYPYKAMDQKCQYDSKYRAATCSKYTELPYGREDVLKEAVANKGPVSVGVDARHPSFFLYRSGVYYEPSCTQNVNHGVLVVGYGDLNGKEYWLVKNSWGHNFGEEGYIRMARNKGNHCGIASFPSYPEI

Consider `CN(Cc1cnc2nc(N)nc(N)c2n1)c1ccc(C(=O)N[C@@H](CCC(=O)O)C(=O)O)cc1` [Methotrexate], for which, in data set [1], the “% absorption in man” value is 20%.
Take `CCC1OCC(=O)C1NC(=O)C(CC(C)C)NC(=O)c1ccc(-c2csc(N3CCN(C)CC3)n2)cc1` (stereo not shown) [Example 3, N-[1-(2-Ethyl-4-oxo-tetrahydro-furan-3-ylcarbamoyl)-3-methyl-butyl]-4-[2-(4-methylpiperazin-1-yl)-thiazol-4-yl]-benzamide]: the figures for the pKi at cathepsin K, at human cathepsin L and at human cathepsin S were 9.00, 6.30 and 5.74, respectively. The compound further registered a Papp at 120 min, 10 uM in data set [2] of 46 ×10⁻⁶ cm/s.
For the compound `OC[C@@H](O)[C@@H](O)[C@H](O)[C@H](O)CO` [Mannitol], the “% absorption in man” value in data set [1] is 16%.
With `CCC1OCC(=O)C1NC(=O)C1(NC(=O)c2ccc(-c3csc(N4CCN(C)CC4)n3)cc2)CCCCC1` (stereo not shown) [Example 2, N-[1-(2-Ethyl-4-oxo-tetrahydro-furan-3-ylcarbamoyl)-cyclohexyl]-4-[2-(4-methylpiperazin-1-yl)-thiazol-4-yl]-benzamide], the pKi was 3.92 on human cathepsin L and 3.11 on human cathepsin S. In data set [2], this compound came in with a Papp at 120 min, 10 uM of 36 ×10⁻⁶ cm/s.
Compound `CC(C)C[C@H](NC(=O)c1ccc(N2CCN(C)CC2)cc1)C(=O)N[C@H]1C(=O)CO[C@@H]1C` [Prior art, reference compound] displayed a Papp at 10 µM in data set [2] of 1 ×10⁻⁶ cm/s.
